In publication PMC5078989, “Targeted inhibition of the COP9 signalosome for treatment of cancer” (Nature Communications, 2016):

Tested on: panel of cancer cell lines
Assay: Cell viability (CellTiter-Glo) dose-response across cancer cell line panel;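 further: after 72 h compound incubation with CellTiter-Glo ATP readout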
Type: cell-based, human
Conditions: Homo sapiens
Description: Next, we explored the effect of CSN5 inhibition on the viability of cancer cells. To obtain a comprehensive picture, we generated dose–response curves with a CSN5 inhibitor across more than 500 cancer cell lines in a previously described standardized setting[47] (Supplementary Data 1).
A standardized CellTiter-Glo Assay (Promega #G7570) based on the quantification of ATP was applied according to the manufacturer's protocol to measure the amount of viable cells in culture. In brief, cells were seeded into 384-well plates at optimal density for each cell line. After 4 h, compounds were added at different concentrations in growth medium and incubated for another 72 h in a humidifying chamber at 37 °C and 5% CO2. […] EC50 values were calculated from the plot of percentage of inhibition versus inhibitor concentration using the nonlinear regression analysis software Origin 7.5SR6 (OriginLab Corp.).

## CC(C)C[C@H](NC(=O)[C@H](Cc1ccccc1)NC(=O)c1cnccn1)B(O)O [Bortezomib]
NALM-6, NALM-6
  EC50: 8.08 nM
NB1, NB-1
  EC50: 7.56 nM
NB-4, NB-4
  EC50: 4.38 nM
NCI-H28, NCI-H28
  EC50: 10.1 nM
NCI-H82, cell line NCI-H82
  EC50: 1.25 nM
NCI-H146, cell line NCI-H146
  EC50: 10.9 nM
NCI-H196, NCI-H196
  EC50: 27 nM
NCI-H226, cell line NCI-H226
  EC50: 14.9 nM
NCI-H358, NCI-H358
  EC50: 10.3 nM
NCI-H441, NCI-H441
  EC50: 15.5 nM
NCI-H460, cell line NCI-H460
  EC50: 85.2 nM
NCI-H520, cell line NCI-H520
  EC50: 7.91 nM
NCI-H524, NCI-H524
  EC50: 7.72 nM
NCI-H596, NCI-H596
  EC50: 21 nM
NCI-H647, cell line NCI-H647
  EC50: 13.7 nM
NCI-H650, NCI-H650
  EC50: 118 nM
NCI-H661, cell line NCI-H661
  EC50: 17.3 nM
NCI-H716, NCI-H716
  EC50: 5.09 nM
NCI-H727, NCI-H727
  EC50: 27.4 nM
NCI-H810, cell line NCI-H810
  EC50: 11.8 nM
NCI-H838, NCI-H838
  EC50: 28.5 nM
NCI-H841, NCI-H841
  EC50: 18 nM
NCI-H1048, NCI-H1048
  EC50: 18.6 nM
NCI-H1092, NCI-H1092
  EC50: 19 nM
NCI-H1184
  EC50: 7.24 nM
NCI-H1299, cell line NCI-H1299
  EC50: 18.5 nM
NCI-H1341
  EC50: 11 nM
NCI-H1355, cell line NCI-H1355
  EC50: 27.8 nM
NCI-H1437, cell line NCI-H1437
  EC50: 19.5 nM
NCI-H1563, cell line NCI-H1563
  EC50: 57.8 nM
NCI-H1568, cell line NCI-H1568
  EC50: 12.2 nM
NCI-H1573, NCI-H1573
  EC50: 38.2 nM
NCI-H1581, cell line NCI-H1581
  EC50: 12.9 nM
NCI-H1623, NCI-H1623
  EC50: 14 nM
NCI-H1650, cell line NCI-H1650
  EC50: 3.29 nM
NCI-H1651, NCI-H1651
  EC50: 8.83 nM
NCI-H1666, cell line NCI-H1666
  EC50: 7.68 nM
NCI-H1693, NCI-H1693
  EC50: 5.61 nM
NCI-H1703, cell line NCI-H1703
  EC50: 9.11 nM
NCI-H1734, NCI-H1734
  EC50: 9.07 nM
NCI-H1781, cell line NCI-H1781
  EC50: 12.9 nM
NCI-H1792, cell line NCI-H1792
  EC50: 51.8 nM
NCI-H1793, cell line NCI-H1793
  EC50: 55.3 nM
NCI-H1869
  EC50: 3.35 nM
NCI-H1944, NCI-H1944
  EC50: 55.2 nM
NCI-H1975, cell line NCI-H1975
  EC50: 9.64 nM
NCI-H2023, NCI-H2023
  EC50: 24.1 nM
NCI-H2073, NCI-H2073
  EC50: 26.5 nM
NCI-H2087, cell line NCI-H2087
  EC50: 7.21 nM
NCI-H2122, cell line NCI-H2122
  EC50: 22.5 nM
NCI-H2126, cell line NCI-H2126
  EC50: 24.4 nM
NCI-H2170, cell line NCI-H2170
  EC50: 15.6 nM
NCI-H2172, NCI-H2172
  EC50: 51.5 nM
NCI-H2405, NCI-H2405
  EC50: 16.8 nM
NCI-H2452, NCI-H2452
  EC50: 21.7 nM
NCI-H3255, NCI-H3255
  EC50: 8.64 nM
NOMO-1, NOMO-1
  EC50: 11.9 nM
NUGC-3, cell line NUGC-3
  EC50: 11.9 nM
NUGC-4, cell line NUGC-4
  EC50: 16.2 nM
OAW-42, OAW42
  EC50: 14.4 nM
OC 316
  EC50: 8.98 nM
OC-314, OC 314
  EC50: 8.6 nM
OCI-AML2, OCI-AML2
  EC50: 8.61 nM
OCI-AML-3, OCI-AML3
  EC50: 5.45 nM
OCI-AML-5, OCI-AML5
  EC50: 9.17 nM
OCI-LY19, OCI-LY-19
  EC50: 11.2 nM
OCI-Ly3, OCI-LY3
  EC50: 5.53 nM
OCI-Ly10, OCI-LY10
  EC50: 5.53 nM
OCI-M1, OCI-M1
  EC50: 2.41 nM
OE19, cell line OE19
  EC50: 13.4 nM
OE33, cell line OE33
  EC50: 20.1 nM
ONCO-DG-1, ONCO-DG-1
  EC50: 11.6 nM
OS-RC-2, OS-RC-2
  EC50: 18.7 nM
OUMS-23, OUMS-23
  EC50: 14.1 nM
OV7, OV7
  EC50: 8.26 nM
OV56, cell line OV56
  EC50: 13.6 nM
OV-90, OV-90
  EC50: 15 nM
OVCAR-4, cell line OVCAR-4
  EC50: 12 nM
OVCAR-8, cell line OVCAR-8
  EC50: 19.3 nM
OVISE
  EC50: 9.83 nM
OVSAHO
  EC50: 9.15 nM
P3HR-1, P3HR-1
  EC50: 8.29 nM
P12-Ichikawa
  EC50: 1.82 nM
P31-FUJ, P31/FUJ
  EC50: 5.93 nM
PANC-1, cell line PANC-1
  EC50: 8.76 nM
PANC-03-27, cell line Panc 03.27
  EC50: 10.6 nM
PC-14, cell line PC-14
  EC50: 15.2 nM
PE/CA-PJ41 (clone D2)
  EC50: 9.74 nM
PEER
  EC50: 11.7 nM
PF-382, PF-382
  EC50: 2.73 nM
PL-21, PL-21
  EC50: 11.7 nM
PLC-PRF-5, PLC/PRF/5
  EC50: 7.53 nM
PSN1, cell line PSN1
  EC50: 10.4 nM
PaTu 8988s, PA-TU-8988S
  EC50: 13.7 nM
Panc 02.03, cell line Panc 02.03
  EC50: 11 nM
Panc 04.03, cell line Panc 04.03
  EC50: 22.6 nM
Panc1005, cell line Panc 10.05
  EC50: 5.21 nM
RCC10RGB
  EC50: 5.1 nM
RCH-ACV
  EC50: 2.1 nM
RD
  EC50: 7.69 nM
REH
  EC50: 4.69 nM
RKN
  EC50: 16.4 nM
RMUG-S
  EC50: 67.5 nM
RPMI 8402, RPMI-8402
  EC50: 5.89 nM
RPMI-7951, cell line RPMI-7951
  EC50: 10.1 nM
RPMI-8226, cell line RPMI 8226
  EC50: 3.33 nM
RS4-11, cell line RS4;11
  EC50: 1.7 nM
RT-112, RT-112
  EC50: 5.2 nM
RVH-421, RVH-421
  EC50: 8.58 nM
Raji, cell line Raji
  EC50: 10.7 nM
Rec1, cell line REC-1
  EC50: 9.53 nM
Rh18, cell line RH-18
  EC50: 31.3 nM
Rh41, cell line RH-41
  EC50: 7.35 nM
Ri-1, RI-1
  EC50: 4.9 nM
SCaBER, cell line SCaBER
  EC50: 14.3 nM
SEM
  EC50: 2.39 nM
SET-2, cell line Set-2
  EC50: 10.4 nM
SF-126, SF126
  EC50: 13.1 nM
SF-295, cell line SF-295
  EC50: 11.8 nM
SH-4, SH-4
  EC50: 4.59 nM
SH-10-TC, cell line SH-10-TC
  EC50: 16.1 nM
SHP77, SHP-77
  EC50: 12.1 nM
SIG-M5, SIG-M5
  EC50: 5.14 nM
SJRH30, cell line SJRH30
  EC50: 16.5 nM
SJSA-1, cell line SJSA-1
  EC50: 26.6 nM
SK-BR-3, cell line SK-BR-3
  EC50: 6.43 nM
SK-CO-1, SK-CO-1
  EC50: 5.8 nM
SK-ES1, cell line SK-ES-1
  EC50: 9.79 nM
SK-LMS-1, SK-LMS-1
  EC50: 8.32 nM
SK-LU-1, SK-LU-1
  EC50: 9.51 nM
SK-MEL3, cell line SK-MEL-3
  EC50: 8.95 nM
SK-MEL-1, SK-MEL-1
  EC50: 18.7 nM
SK-MEL-2, cell line SK-MEL-2
  EC50: 10.4 nM
SK-MEL-5, cell line SK-MEL-5
  EC50: 8.81 nM
SK-MEL-24, SK-MEL-24
  EC50: 19.7 nM
SK-MEL-30, cell line SK-MEL-30
  EC50: 10.7 nM
SK-MES-1, cell line SK-MES-1
  EC50: 15.8 nM
SK-N-AS, cell line SK-N-AS
  EC50: 7.25 nM
SK-N-DZ
  EC50: 8.89 nM
SK-N-FI, cell line SK-N-FI
  EC50: 11.5 nM
SK-N-SH
  EC50: 7.2 nM
SK-OV-3, cell line SK-OV-3
  EC50: 26.8 nM
SK-UT-1, SK-UT-1
  EC50: 8.52 nM
SKM-1, SKM-1
  EC50: 3.7 nM
SKNBE2, SK-N-BE(2)
  EC50: 8.65 nM
SNG-M
  EC50: 7.04 nM
SNU1, SNU-1
  EC50: 17 nM
SNU878, SNU-878
  EC50: 22.9 nM
SNU-16, cell line SNU-16
  EC50: 5.79 nM
SNU-119
  EC50: 19.4 nM
SNU-216, SNU-216
  EC50: 15 nM
SNU-449, SNU-449
  EC50: 29.9 nM
SNU-475, SNU-475
  EC50: 24.7 nM
SNU-626
  EC50: 15.1 nM
SNU-738
  EC50: 32.7 nM
SNU-1079
  EC50: 8.89 nM
SNU-C1, SNU-C1
  EC50: 3.82 nM
SNU-C5
  EC50: 16.7 nM
